The text below walks through data of ChEMBL document CHEMBL1201862, “PubChem BioAssay data set” (2004).

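48-hour exposure; five concentrations; linearly interpolated endpoints. The concentration for 50% growth inhibition is given as GI50.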 The source made the active and inactive calls. Rule as the data show it: active = GI50 up to about 1.1 µM and inactive = higher. Some results are limits rather than exact numbers.

Test systems include 786-0; A498; A549; ACHN; COLO 205; DU-145; HCC 2998; HCT-15; HL-60; HOP-62; HT-29; IGROV-1; MDA-MB-231; NCI-H226; OVCAR-4; SK-MEL-5; SK-OV-3; SNB-75; T47D; TK-10.
Holding throughout (test): NCI tumour cell line growth inhibition, 48 h

As to `CCOC(=O)N(c1ccccc1)c1cc(=O)n2ccccc2n1`, the GI50 in the experiment on 786-0, with A498, with A549, in the experiment on ACHN, in the experiment on COLO 205 and with DU-145 was > 100 µM (inactive) in each case. Besides, the GI50 is > 100 µM (inactive) in the experiment on HCC 2998; over 100 µM in the experiment on HCT-15; > 100 µM (inactive) with HL-60; > 100 µM (inactive) in the experiment on HOP-62; > 100 µM (inactive) in the experiment with HT-29; > 100 µM (inactive) with IGROV-1. Further, the GI50 in the experiment with MDA-MB-231, in the experiment on NCI-H226, in the experiment on OVCAR-4, in the experiment with SK-MEL-5, in the experiment with SK-OV-3 and with SNB-75 was > 100 µM (inactive) throughout. For the same compound, the GI50 with T47D and in the experiment on TK-10 was > 100 µM (inactive) throughout.
With `COC(=O)c1ccc(/N=N/N(C)COc2ccc(C#N)cc2)cc1`, the GI50 is > 100 µM (inactive) in the experiment on 786-0; > 100 µM (inactive) in the experiment with A498; 70 µM (inactive) with A549; 21.2 µM (inactive) in the experiment with ACHN; 61.2 µM (inactive) in the experiment on COLO 205; 40.4 µM (inactive) in the experiment on DU-145. Also, the GI50 was 62.1 µM (inactive) in the experiment on HCC 2998; 22.4 µM in the experiment with HCT-15; 16.6 µM (inactive) in the experiment on HL-60; > 100 µM (inactive) in the experiment on HOP-62; > 100 µM (inactive) in the experiment on HT-29; > 100 µM (inactive) with IGROV-1. Moreover, the GI50 in the experiment with MDA-MB-231 was > 100 µM (inactive); in the experiment with NCI-H226, > 100 µM (inactive); in the experiment on OVCAR-4 it was > 100 µM (inactive); in the experiment with SK-MEL-5, 45.1 µM (inactive); in the experiment on SK-OV-3 it was > 100 µM (inactive); in the experiment on SNB-75 it was 49.2 µM (inactive). For the same compound, the GI50 with T47D is 74 µM (inactive); with TK-10 it was > 100 µM (inactive).
On to `O=c1[nH]c(=O)n(C2CC(O)C(COP(=O)(O)OC3CC(n4cc(F)c(=O)[nH]c4=O)OC3COP(=O)(O)OC3CC(n4cc(F)c(=O)[nH]c4=O)OC3COP(=O)(O)OC3CC(n4cc(F)c(=O)[nH]c4=O)OC3COP(=O)(O)OC3CC(n4cc(F)c(=O)[nH]c4=O)OC3COP(=O)(O)OC3CC(n4cc(F)c(=O)[nH]c4=O)OC3COP(=O)(O)OC3CC(n4cc(F)c(=O)[nH]c4=O)OC3COP(=O)(O)OC3CC(n4cc(F)c(=O)[nH]c4=O)OC3COP(=O)(O)OC3CC(n4cc(F)c(=O)[nH]c4=O)OC3COP(=O)(O)OC3CC(n4cc(F)c(=O)[nH]c4=O)OC3CO)O2)cc1F` (stereo not given), for which the GI50 in the experiment on 786-0 is < 0.005 µM (active); in the experiment on A498, < 0.005 µM (active); in the experiment with A549, < 0.005 µM (active); with ACHN, < 0.005 µM (active); in the experiment on COLO 205 it was 0.129 µM (active); in the experiment on DU-145 it was < 0.005 µM (active). Further, the GI50 in the experiment with HCC 2998 was 0.0234 µM (active); in the experiment on HCT-15 it was 0.309 µM; in the experiment with HL-60 it was 0.0126 µM (active); in the experiment on HOP-62 it was < 0.005 µM (active); in the experiment on HT-29, 0.481 µM (active); with IGROV-1, 0.0435 µM (active). Besides, the GI50 is 9.33 µM (inactive) in the experiment with MDA-MB-231; 0.194 µM (active) in the experiment on NCI-H226; 0.661 µM (active) with OVCAR-4; 0.00824 µM (active) in the experiment with SK-MEL-5; 0.226 µM (active) with SK-OV-3; 0.353 µM (active) with SNB-75. For the same compound, the GI50 in the experiment with T47D was 0.0473 µM (active); with TK-10, 0.493 µM (active).
